Test results taken from the NIST ThermoML archive (doi:10.1016/j.jct.2011.10.009).

Experiment: xn = mol fraction of the nth substance listed
Settings: 101 kPa, Liquid, Vibrating tube method

CCO [ethanol] + O
mass density [kg/m3]
Settings	278.15 K	288.15 K	298.15 K	308.15 K	318.15 K
x2 = 0.0009961	802.2	793.72	785.15	776.47	767.66
x2 = 0.002144	802.34	793.86	785.29	776.61	767.79
x2 = 0.004143	802.59	794.1	785.53	776.85	768.03
x2 = 0.00674	802.91	794.42	785.85	777.16	768.34
x2 = 0.009286	803.22	794.73	786.16	777.47	768.65
x2 = 0.01189	803.54	795.06	786.48	777.79	768.96
x2 = 0.01442	803.85	795.37	786.79	778.09	769.26
x2 = 0.01794	804.29	795.8	787.22	778.52	769.69
x2 = 0.02115	804.68	796.2	787.61	778.92	770.08
x2 = 0.02506	805.17	796.68	788.1	779.4	770.56
x2 = 0.0292	805.69	797.2	788.61	779.91	771.06
x2 = 0.03125	805.94	797.46	788.87	780.16	771.31
x2 = 0.0336	806.24	797.75	789.16	780.45	771.6
x2 = 0.03661	806.61	798.13	789.54	780.83	771.97

[2H]C(C)O (stereo not given) [ethanol-1-d] + [2H]O[2H]
mass density [kg/m3]
Settings	278.15 K	288.15 K	298.15 K	308.15 K	318.15 K
x2 = 0.001004	819.11	810.48	801.72	792.83	783.78
x2 = 0.00168	819.21	810.58	801.83	792.94	783.89
x2 = 0.00308	819.43	810.8	802.05	793.15	784.1
x2 = 0.005192	819.67	811.12	802.37	793.47	784.42
x2 = 0.008159	820.22	811.58	802.83	793.93	784.87
x2 = 0.01089	820.65	812.01	803.25	794.34	785.28
x2 = 0.01426	821.17	812.53	803.76	794.86	785.79
x2 = 0.0173	821.64	813	804.23	795.32	786.25
x2 = 0.02028	822.1	813.46	804.69	795.77	786.7
x2 = 0.02325	822.56	813.91	805.14	796.22	787.14
x2 = 0.02639	823.05	814.4	805.62	796.7	787.61
x2 = 0.03026	823.65	814.99	806.21	797.28	788.19
x2 = 0.03472	824.23	815.57	806.78	797.85	788.76
x2 = 0.03723	824.72	816.06	807.27	798.33	789.23
